Results published in PMC12148371 (iScience, 2025).
Where two headings read alike, the source gives them in different places.

Assays:
pseudotyped EBOV = assay: microbe, parasite or virus in culture; format: cell-based, Zaire ebolavirus; settings: for IC50: read-out: EBOV (IC50)
in vitro = settings: human
pseudotyped BDBV = assay: microbe, parasite or virus in culture; format: cell-based, Bundibugyo ebolavirus; settings: Bundibugyo virus, TZM-bl, read-out: BDBV (IC50)
infectious EBOV = assay: microbe, parasite or virus in culture; format: cell-based, Ebola Zaire virus; settings: Zaire ebolavirus, read-out: Infectious EBOV (IC50)
[1] = target: GP-RBD-Fc (without the glycan cap and MLD) (Bundibugyo ebolavirus (key resources table); called EBOV in the results); assay: BLI; pH 6.1
[2] = target: GP-RBD-Fc (without the glycan cap and MLD) (Bundibugyo ebolavirus (key resources table); called EBOV in the results); assay: BLI; pH 7.4
pseudotyped A-MLV = format: cell-based, amphotropic murine leukemia virus
pseudotyped VSV = format: cell-based, vesicular stomatitis virus
[3] = test system: NPC1 binding to Ebola GP-RBD; design: species or system Ebola virus

CC1(C)CC(NC(=O)C(=O)Nc2ccc(C(F)(F)F)c(F)c2)CC(C)(C)N1 [DY-III-226]
IC50 (pseudotyped EBOV; Zaire ebolavirus, TZM-bl): 11.1 µM | IC50 (pseudotyped EBOV): 11.2 ± 0.8 µM | CC50 (in vitro): 48.4 ± 5.4 µM | IC50 (pseudotyped BDBV): 10.6 ± 0.5 µM

CC1(C)CC(NC(=O)C(=O)Nc2ccc(C(C)(C)C)cc2)CC(C)(C)N1 [Compd N9]
IC50 (pseudotyped EBOV; Zaire ebolavirus, TZM-bl): 9.51 ± 1.6 µM | CC50 (in vitro): > 100 µM | IC50 (infectious EBOV): 9.46 µM | IC50 (pseudotyped BDBV): 17.6 ± 2.7 µM

human soluble CD4-183 (sCD4-183) two-domain protein (domain or fragment)
Kd [1]: 0.36 µM | Kd [2]: 52 µM

CC1(C)CC(NC(=O)C(=O)Nc2ccc(Br)cc2)CC(C)(C)N1 [NBD-557]
IC50 (pseudotyped EBOV; Zaire ebolavirus, TZM-bl): 19.8 ± 1.7 µM | IC50 (pseudotyped BDBV): 10.6 ± 1.8 µM

CC1(C)CC(NC(=O)C(=O)Nc2ccc(Cl)c(F)c2)CC(C)(C)N1 [JRC-II-191]
IC50 (pseudotyped EBOV; Zaire ebolavirus, TZM-bl): 9.52 ± 1.4 µM | CC50 (in vitro): 43.2 ± 6 µM | IC50 (infectious EBOV): 5.25 µM | IC50 (pseudotyped BDBV): 9.99 ± 1.1 µM | neutralization of pseudotyped A-MLV (pseudotyped A-MLV): did not neutralize | neutralization of pseudotyped VSV (pseudotyped VSV): did not neutralize | NPC1 binding remaining (A488+ cells) in presence of competitor [3]: 24.29%

CC1(C)CC(NC(=O)C(=O)Nc2ccc(C(C)(C)C)c(F)c2)CC(C)(C)N1 [DY-III-228]
IC50 (pseudotyped EBOV; Zaire ebolavirus, TZM-bl): 1.98 ± 0.5 µM | CC50 (in vitro): 20.6 ± 2.6 µM | IC50 (infectious EBOV): 0.56 µM | IC50 (pseudotyped BDBV): 2.25 ± 0.2 µM | NPC1 binding remaining (A488+ cells) in presence of competitor [3]: 30.90%

CC1(C)CC(NC(=O)C(=O)Nc2cc(F)c(Cl)c(F)c2)CC(C)(C)N1 [DY-III-227]
IC50 (pseudotyped EBOV; Zaire ebolavirus, TZM-bl): 12.1 µM | IC50 (pseudotyped EBOV): 12.5 ± 1.5 µM | CC50 (in vitro): 68.3 ± 4.3 µM | IC50 (pseudotyped BDBV): 12.1 ± 0.7 µM

CC1(C)CC(NC(=O)C(=O)Nc2ccc(Cl)cc2)CC(C)(C)N1 [NBD-556]
IC50 (pseudotyped EBOV; Zaire ebolavirus, TZM-bl): 18.2 ± 1 µM | CC50 (in vitro): 67.7 ± 7.3 µM | IC50 (infectious EBOV): 18.8 µM | IC50 (pseudotyped BDBV): 16.8 ± 2.1 µM | NPC1 binding remaining (A488+ cells) in presence of competitor [3]: 28.36%

CNCc1ccc2c(c1)C[C@H](CNC(=N)N)[C@H]2NC(=O)C(=O)Nc1ccc(Cl)c(F)c1 [BNM-III-170]
inhibition potency against EBOV, in words (pseudotyped EBOV): largely reduced | IC50 (pseudotyped EBOV; Zaire ebolavirus, TZM-bl): > 30 µM
